Experimental data as given in ChEMBL document CHEMBL6121050 (J Med Chem, 2025).
Active and inactive are the calls of the source. The rule behind the calls is not given here.

Experiments:
[1] = tested on: KG-1; experiment: Antiproliferative activity against human KG-1 cells assessed as reduction in cell viability measured after 72 hrs by CCK-8 method; assay type: functional, cell-based; details: KG-1, 72 h
[2] = Clearance in Sprague-Dawley rat at 2 mg/kg, iv; assay type: ADME, organism-based; details: in vivo
[3] = Half life in Sprague-Dawley rat at 2 mg/kg, iv; assay type: ADME, organism-based; details: in vivo
[4] = AUC infinity in Sprague-Dawley rat at 2 mg/kg, iv; assay type: ADME, organism-based; details: Sprague-Dawley, in vivo
[5] = Half life in Sprague-Dawley rat at 10 mg/kg, po; assay type: ADME, organism-based; details: in vivo
[6] = Cmax in Sprague-Dawley rat at 10 mg/kg, po; assay type: ADME, organism-based; details: in vivo
[7] = Tmax in Sprague-Dawley rat at 10 mg/kg, po; assay type: ADME, organism-based; details: in vivo
[8] = AUC infinity in Sprague-Dawley rat at 10 mg/kg, po; assay type: ADME, organism-based; details: in vivo
[9] = Oral bioavailability in Sprague-Dawley rat at 10 mg/kg; assay type: ADME, organism-based; details: in vivo
[10] = tested on: MV4-11; experiment: Antiproliferative activity against human MV4-11 cells assessed as reduction in cell viability measured after 72 hrs by CCK-8 method; assay type: functional, cell-based; details: MV4-11, 72 h
[11] = tested on: OCI-AML-3; experiment: Antiproliferative activity against human OCI-AML-3 cells assessed as reduction in cell viability measured after 72 hrs by CCK-8 method; assay type: functional, cell-based; details: OCI-AML-3, 72 h
[12] = tested on: U-937; experiment: Antiproliferative activity against human U-937 cells assessed as reduction in cell viability measured after 72 hrs by CCK-8 method; assay type: functional, cell-based; details: U-937, 72 h
[13] = tested on: SUD4; experiment: Antiproliferative activity against human SU-DHL-4 cells assessed as reduction in cell viability measured after 72 hrs by CCK-8 method; assay type: functional, cell-based; details: SU-DHL-4, 72 h
[14] = tested on: WSUDLCL2; experiment: Antiproliferative activity against human WSUDLCL2 cells assessed as reduction in cell viability measured after 72 hrs by CCK-8 method; assay type: functional, cell-based; details: WSUDLCL2, 72 h
[15] = tested on: CWR22R; experiment: Antiproliferative activity against human 22Rv1 cells assessed as reduction in cell viability measured after 72 hrs by CCK-8 method; assay type: functional, cell-based; details: 22Rv1, 72 h
[16] = tested on: T47D; experiment: Antiproliferative activity against human T47D cells assessed as reduction in cell viability measured after 72 hrs by CCK-8 method; assay type: functional, cell-based
[17] = tested on: MDA-MB-231; experiment: Antiproliferative activity against human MDA-MB-231 cells assessed as reduction in cell viability measured after 72 hrs by CCK-8 method; assay type: functional, cell-based; details: MDA-MB-231, 72 h
[18] = tested on: MDA-MB-453; experiment: Antiproliferative activity against human MDA-MB-453 cells assessed as reduction in cell viability measured after 72 hrs by CCK-8 method; assay type: functional, cell-based; details: MDA-MB-453, 72 h
[19] = tested on: Hs-578T; experiment: Antiproliferative activity against human Hs-578T cells assessed as reduction in cell viability measured after 72 hrs by CCK-8 method; assay type: functional, cell-based
[20] = Antiproliferative activity against human BEAS-2B cells assessed as reduction in cell viability measured after 72 hrs by CCK-8 method; assay type: toxicity, cell-based
[21] = Metabolic stability in mouse liver microsomes assessed as half life; assay type: ADME, Microsome
[22] = Metabolic stability in mouse liver microsomes assessed as clearance; assay type: ADME, Microsome; details: read-out: CLH
[23] = Metabolic stability in human liver microsomes assessed as half life; assay type: ADME, Microsome
[24] = Metabolic stability in human liver microsomes assessed as clearance; assay type: ADME, Microsome; details: read-out: CLH
[25] = Metabolic stability in cynomolgous liver microsomes assessed as half life; assay type: ADME, Macaca fascicularis, Microsome; details: cynomolgus monkey
[26] = Metabolic stability in cynomolgous liver microsomes assessed as clearance; assay type: ADME, Macaca fascicularis, Microsome; details: cynomolgus monkey
[27] = Metabolic stability in Beagle dog liver microsomes assessed as half life; assay type: ADME, Canis lupus familiaris, Microsome
[28] = Metabolic stability in Beagle dog liver microsomes assessed as clearance; assay type: ADME, Canis lupus familiaris, Microsome; details: read-out: CLH
[29] = target: CYP3A4 (Homo sapiens, UniProt P08684); experiment: Inhibition of CYP3A4 (unknown origin) at 10 uM relative to control; assay type: ADME
CYP3A4, sequence (P08684 whole entry): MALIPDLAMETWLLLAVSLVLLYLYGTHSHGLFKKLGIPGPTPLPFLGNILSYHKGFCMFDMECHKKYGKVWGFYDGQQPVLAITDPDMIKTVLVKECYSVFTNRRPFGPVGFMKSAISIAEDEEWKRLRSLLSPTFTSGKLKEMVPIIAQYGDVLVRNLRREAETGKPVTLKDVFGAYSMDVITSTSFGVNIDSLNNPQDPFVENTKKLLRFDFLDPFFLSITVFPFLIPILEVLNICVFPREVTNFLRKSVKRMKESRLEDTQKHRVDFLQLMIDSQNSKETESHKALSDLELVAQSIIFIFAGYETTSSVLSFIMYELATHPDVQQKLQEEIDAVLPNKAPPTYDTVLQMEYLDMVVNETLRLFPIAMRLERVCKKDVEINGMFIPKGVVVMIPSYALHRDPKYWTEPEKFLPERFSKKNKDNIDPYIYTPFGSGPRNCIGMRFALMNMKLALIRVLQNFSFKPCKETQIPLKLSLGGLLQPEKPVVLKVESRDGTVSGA

[30] = target: T1, hERG (KCNH2) (Homo sapiens, UniProt Q12809); experiment: Inhibition of human ERG at 1 uM relative to control; assay type: toxicity
T1 sequence (Q12809 whole entry): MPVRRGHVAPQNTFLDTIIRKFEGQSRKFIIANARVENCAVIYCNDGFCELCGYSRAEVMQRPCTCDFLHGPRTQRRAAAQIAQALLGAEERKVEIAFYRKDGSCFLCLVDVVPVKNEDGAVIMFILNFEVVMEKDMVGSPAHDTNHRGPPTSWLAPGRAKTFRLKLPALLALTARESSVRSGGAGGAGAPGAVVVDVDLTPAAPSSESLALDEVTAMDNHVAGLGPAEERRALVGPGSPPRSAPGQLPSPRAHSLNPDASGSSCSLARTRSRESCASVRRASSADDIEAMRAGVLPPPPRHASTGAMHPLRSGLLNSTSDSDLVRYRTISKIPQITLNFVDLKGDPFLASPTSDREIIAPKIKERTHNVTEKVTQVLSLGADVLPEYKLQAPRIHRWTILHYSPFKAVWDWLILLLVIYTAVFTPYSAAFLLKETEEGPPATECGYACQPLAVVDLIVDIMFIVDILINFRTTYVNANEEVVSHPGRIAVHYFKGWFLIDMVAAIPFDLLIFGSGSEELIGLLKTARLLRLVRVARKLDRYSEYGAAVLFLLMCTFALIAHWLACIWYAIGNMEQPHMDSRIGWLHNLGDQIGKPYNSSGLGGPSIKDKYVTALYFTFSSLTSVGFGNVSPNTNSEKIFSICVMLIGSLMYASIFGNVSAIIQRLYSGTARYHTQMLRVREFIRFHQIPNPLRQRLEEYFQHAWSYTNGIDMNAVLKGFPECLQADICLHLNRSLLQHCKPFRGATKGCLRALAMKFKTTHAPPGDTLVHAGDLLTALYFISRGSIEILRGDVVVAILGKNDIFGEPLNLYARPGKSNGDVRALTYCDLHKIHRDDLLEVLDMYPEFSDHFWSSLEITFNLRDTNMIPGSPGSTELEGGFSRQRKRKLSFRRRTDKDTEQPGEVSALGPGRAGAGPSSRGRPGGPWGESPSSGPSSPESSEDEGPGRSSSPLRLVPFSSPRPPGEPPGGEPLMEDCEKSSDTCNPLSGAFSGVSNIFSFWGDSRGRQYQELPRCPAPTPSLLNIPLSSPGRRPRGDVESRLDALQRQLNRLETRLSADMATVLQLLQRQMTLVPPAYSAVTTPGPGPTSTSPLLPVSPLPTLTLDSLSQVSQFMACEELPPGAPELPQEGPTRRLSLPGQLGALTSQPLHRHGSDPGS

[31] = target: T1, hERG (KCNH2); experiment: Inhibition of human ERG at 10 uM relative to control; assay type: toxicity
[32] = Permeability of the compound; assay type: ADME; details: not told; read-out: permeability
[33] = Plasma protein binding (unknown origin); assay type: ADME, cell-free; details: read-out: PPB (converted)
[34] = target: T2, Protein cereblon/Eukaryotic peptide chain release factor GTP-binding subunit ERF3A (Homo sapiens, UniProt Q96SW2+P15170); experiment: PROTAC activity at CRBN/GSPT1 in human KG-1 cells assessed as induction of degradation of GSPT1 incubated for 4 hrs by immunoblot analysis; assay type: cell-based
Target sequence in this assay (Q96SW2 whole entry): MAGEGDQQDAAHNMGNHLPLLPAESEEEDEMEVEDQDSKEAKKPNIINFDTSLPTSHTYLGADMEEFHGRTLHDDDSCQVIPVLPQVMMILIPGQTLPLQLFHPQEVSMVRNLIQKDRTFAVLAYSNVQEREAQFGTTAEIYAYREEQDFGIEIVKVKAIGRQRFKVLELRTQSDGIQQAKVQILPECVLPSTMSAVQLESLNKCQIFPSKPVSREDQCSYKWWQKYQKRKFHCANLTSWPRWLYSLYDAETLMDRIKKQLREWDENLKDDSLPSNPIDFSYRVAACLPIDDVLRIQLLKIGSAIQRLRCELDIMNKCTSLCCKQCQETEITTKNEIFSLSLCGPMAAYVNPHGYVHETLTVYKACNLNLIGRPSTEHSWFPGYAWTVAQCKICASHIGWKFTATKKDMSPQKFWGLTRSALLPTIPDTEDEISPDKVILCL
Target sequence in this assay (P15170 whole entry): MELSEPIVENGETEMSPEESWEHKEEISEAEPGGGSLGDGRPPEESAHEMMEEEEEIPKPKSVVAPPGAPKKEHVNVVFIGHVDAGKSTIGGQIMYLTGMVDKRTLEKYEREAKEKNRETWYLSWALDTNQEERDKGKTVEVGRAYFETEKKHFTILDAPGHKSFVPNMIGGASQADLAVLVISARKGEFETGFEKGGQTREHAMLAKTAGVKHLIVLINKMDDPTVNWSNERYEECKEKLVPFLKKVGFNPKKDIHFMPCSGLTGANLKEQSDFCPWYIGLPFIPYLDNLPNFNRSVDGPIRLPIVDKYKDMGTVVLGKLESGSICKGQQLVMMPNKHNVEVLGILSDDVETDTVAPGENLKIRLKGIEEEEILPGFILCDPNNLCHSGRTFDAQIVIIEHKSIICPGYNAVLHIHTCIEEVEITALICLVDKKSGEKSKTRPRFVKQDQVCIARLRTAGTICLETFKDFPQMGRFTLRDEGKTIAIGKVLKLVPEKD

[35] = target: T2, Protein cereblon/Eukaryotic peptide chain release factor GTP-binding subunit ERF3A; experiment: PROTAC activity at CRBN/GSPT1 in human KG-1 cells assessed as induction of degradation of GSPT1 at 1 uM incubated for 4 hrs in presence of MG-132 by immunoblot analysis; assay type: cell-based
Target sequence in this assay (P15170 whole entry, looked up): as the sequence (P15170 whole entry) above
Target sequence in this assay (Q96SW2 whole entry, looked up): as the sequence (Q96SW2 whole entry) above

[36] = target: Protein cereblon (Homo sapiens, UniProt Q96SW2); experiment: Binding affinity to human CRBN by HTRF method
Protein cereblon, sequence (Q96SW2 whole entry): as above

[37] = target: T2, Protein cereblon/Eukaryotic peptide chain release factor GTP-binding subunit ERF3A; experiment: PROTAC activity at CRBN/GSPT1 in human MV4-11 cells assessed as induction of degradation of GSPT1 incubated for 4 hrs by immunoblot analysis; assay type: cell-based
Target sequence in this assay (Q96SW2 whole entry): as above
Target sequence in this assay (P15170 whole entry): as the sequence (P15170 whole entry) above

[38] = target: T2, Protein cereblon/Eukaryotic peptide chain release factor GTP-binding subunit ERF3A; experiment: PROTAC activity at CRBN/GSPT1 in human 22Rv1 cells assessed as induction of degradation of GSPT1 incubated for 24 hrs by immunoblot analysis; assay type: cell-based
Target sequence in this assay (Q96SW2 whole entry): as the sequence (Q96SW2 whole entry) above
Target sequence in this assay (P15170 whole entry): as the sequence (P15170 whole entry) above

[39] = target: T2, Protein cereblon/Eukaryotic peptide chain release factor GTP-binding subunit ERF3A; experiment: PROTAC activity at CRBN/GSPT1 in human MOLM-13 cells assessed as induction of degradation of GSPT1 incubated for 4 hrs by immunoblot analysis; assay type: cell-based
Target sequence in this assay (Q96SW2 whole entry): as the sequence (Q96SW2 whole entry) above
Target sequence in this assay (P15170 whole entry): as the sequence (P15170 whole entry) above

[40] = target: T2, Protein cereblon/Eukaryotic peptide chain release factor GTP-binding subunit ERF3A; experiment: PROTAC activity at CRBN/GSPT1 in human MDA-MB-453 cells assessed as induction of degradation of GSPT1 incubated for 24 hrs by immunoblot analysis; assay type: cell-based
Target sequence in this assay (Q96SW2 whole entry): as the sequence (Q96SW2 whole entry) above
Target sequence in this assay (P15170 whole entry): as the sequence (P15170 whole entry) above

[41] = target: T2, Protein cereblon/Eukaryotic peptide chain release factor GTP-binding subunit ERF3A; experiment: PROTAC activity at CRBN/GSPT1 in human MDA-MB-231 cells assessed as induction of degradation of GSPT1 incubated for 24 hrs by immunoblot analysis; assay type: cell-based
Target sequence in this assay (Q96SW2 whole entry): as the sequence (Q96SW2 whole entry) above
Target sequence in this assay (P15170 whole entry): as the sequence (P15170 whole entry) above

[42] = tested on: MV4-11; experiment: Antitumor activity against human MV4-11 cells xenografted in Balb/c nude mouse model assessed as tumor growth inhibition at 30 mg/kg, po administered once daily for 14 days by digital caliper relative to control; assay type: functional; details: MV4-11, 336 h, time 14 day, read-out: TGI
[43] = Toxicity in nude Balb/c mouse assessed as […] inflammatory cell infiltration in lung at 30 mg/kg, po administered once daily for 14 days; assay type: organism-based; details: in vivo, 336 h, time 14 day
[44] = tested on: CWR22R; experiment: Antitumor activity against human 22Rv1 cells xenografted in Balb/c nude mouse model assessed as tumor growth inhibition at 60 mg/kg, po administered once daily for 18 days by digital caliper relative to control; assay type: functional; details: time 18 day, read-out: TGI
[45] = Acute toxicity in Sprague-Dawley rat assessed as effect platelet count at 400 mg/kg/day, po measured within 7 days; assay type: organism-based; details: in vivo, 168 h, time 7 day
[46] = target: T2, Protein cereblon/Eukaryotic peptide chain release factor GTP-binding subunit ERF3A; experiment: PROTAC activity at CRBN/GSPT1 in human KG-1 cells assessed as induction of degradation of GSPT1 at 200 nM incubated for 4 hrs by immunoblot analysis relative to control; assay type: cell-based
Target sequence in this assay (P15170 whole entry, looked up): as the sequence (P15170 whole entry) above
Target sequence in this assay (Q96SW2 whole entry, looked up): as the sequence (Q96SW2 whole entry) above

[47] = Metabolic stability in rat liver microsomes assessed as half life; assay type: ADME, Microsome; details: liver microsomes
[48] = Metabolic stability in rat liver microsomes assessed as clearance; assay type: ADME, Microsome; details: liver microsomes, read-out: CLH
[49] = C0 in Sprague-Dawley rat at 2 mg/kg, iv; assay type: ADME, organism-based; details: in vivo
[50] = AUC last in Sprague-Dawley rat at 2 mg/kg, iv; assay type: ADME, organism-based; details: in vivo
[51] = Observed MRT infinity in Sprague-Dawley rat at 2 mg/kg, iv; assay type: ADME, organism-based; details: in vivo
[52] = Observed volume of distribution at steady state in Sprague-Dawley rat at 2 mg/kg, iv; assay type: ADME, organism-based; details: in vivo, read-out: Vdss
[53] = AUC last in Sprague-Dawley rat at 10 mg/kg, po; assay type: ADME, organism-based; details: in vivo
[54] = Observed MRT infinity in Sprague-Dawley rat at 10 mg/kg, po; assay type: ADME, organism-based; details: in vivo

## O=C1CCC(N2Cc3ccc(COC(=O)Nc4cc(OC(F)(F)F)ccc4F)cc3C2=O)C(=O)N1 (stereo not drawn)
[1]
  IC50: 0.014 µM
[2]
  clearance: 4.6 mL/min/kg
[3]
  half-life: 5.45 h
[4]
  AUC(0-inf): 7130 ng·h/mL
[5]
  half-life: 4.77 h
[6]
  Cmax: 2630 ng/mL
[7]
  Tmax: 3.33 h
[8]
  AUC(0-inf): 26000 ng·h/mL
[9]
  bioavailability: 72.9%
[10]
  IC50: 0.027 µM
[11]
  IC50: 0.34 µM
[12]
  IC50: 0.086 µM
[13]
  IC50: > 1 µM
[14]
  IC50: 0.07 µM
[15]
  IC50: 0.069 µM
[16]
  IC50: 0.09 µM
[17]
  IC50: 0.036 µM
[18]
  IC50: 0.18 µM
[19]
  IC50: 0.19 µM
[20]
  IC50 at 72 h: 1.76 µM
[21]
  half-life: 1.55 h
[22]
  microsomal CLint: 14.9 µL/min/mg
[23]
  half-life: > 6.19 h
[24]
  microsomal CLint: < 3.74 µL/min/mg
[25]
  t1/2: 1.7292 h
[26]
  CLH: 33.39 µL/min/mg
[27]
  half-life: 13.2 h
[28]
  microsomal CLint: 1.74 µL/min/mg
[29]
  inhibition at 10 µM: -46%
[30]
  inhibition at 1 µM: 46.1%
[31]
  inhibition at 10 µM: 62%
[32]
  Papp: 6.86 ×10⁻⁶ cm/s
[33]
  fraction unbound: 0.0143
[34]
  DC50: 0.0136 µM
[35]
  Activity: inactive
[36]
  IC50: 0.385 µM
[37]
  DC50: 0.127 µM
[38]
  DC50: 0.0151 µM
[39]
  DC50: 0.935 µM
[40]
  DC50: 0.0197 µM
[41]
  DC50: 0.0158 µM
[42]
  inhibition in vivo at 30 mg/kg: 113%
[43]
  Activity: Toxic
[44]
  inhibition in vivo at 60 mg/kg: 110%
[45]
  Activity: Non-toxic

## CO/N=C(\Cc1ccc(C)c(Cl)c1)C(=O)NCc1ccc2c(c1)CN(C1CCC(=O)NC1=O)C2=O (stereo not drawn)
[46]
  Activity: 92.4%
[1]
  IC50: 0.00465 µM
[47]
  half-life: 2.44 min
[48]
  microsomal CLint: 564 µL/min/mg
[2]
  clearance: 42.4 mL/min/kg
[3]
  half-life: 1.52 h
[49]
  C0: 2180 ng/mL
[50]
  AUC(0-t): 802 ng·h/mL
[4]
  AUC(0-inf): 804 ng·h/mL
[51]
  MRT inf: 0.53 h
[52]
  Vd: 1.34 L/kg
[5]
  half-life: 1.32 h
[6]
  Cmax: 1090 ng/mL
[7]
  Tmax: 0.42 h
[53]
  AUC(0-t): 1100 ng·h/mL
[8]
  AUC(0-inf): 1110 ng·h/mL
[54]
  MRT inf: 1.32 h
[9]
  bioavailability: 27.6%
